The results in this text go back to ChEMBL document CHEMBL1135307, “Novel diamide-based inhibitors of IMPDH” (Bioorg Med Chem Lett, 2002).

Some results are limits rather than exact numbers.

As usually defined, the IC50 is the concentration at which inhibition is half-maximal.

This test concerns the target Inosine-5'-monophosphate dehydrogenase 2 (Homo sapiens, UniProt P12268). Nature of the test: Inhibition of human Inosine-5'-monophosphate dehydrogenase 2.
As for `CC(C)(C)NC(=O)C(=O)Nc1ccc(-c2cnco2)c(Cl)c1`, the midpoint of inhibition, the IC50, lay at 55 nM.
In the case of `COc1cc(NC(=O)CC(=O)Nc2ccccc2)ccc1-c1cnco1` it was 400 nM.
Turning to `COc1cc(NC(=O)C(=O)NC(C)(C)CN(C)C)ccc1-c1cnco1`, the concentration for half-maximal inhibition (IC50) is 47 nM.
Regarding `CC(C)(C)NC(=O)C(=O)Nc1ccc(-c2cnco2)c(Br)c1`, half-maximal inhibition (IC50) required 50 nM.
Take `COC(=O)C(C)(C)NC(=O)C(=O)Nc1ccc(-c2cnco2)c(OC)c1`: inhibition was half-maximal at 74 nM (IC50).
Regarding `COc1cc(NC(=O)C(=O)N(C)C(C)(C)C)ccc1-c1cnco1`, the IC50 is above 10000 nM.
In the case of `COc1cc(NC(=O)C(=O)NC(C)(C)C)ccc1-c1cnco1` it was 10 nM; in that of `COc1cc(NC(=O)C(=O)Nc2cccc(CNC(=O)O[C@@H]3CCOC3)c2)ccc1-c1cnco1`, 30 nM.
Take `COc1cc(NC(=O)CC(=O)Nc2cccc(C)c2)ccc1-c1cnco1`: inhibition was half-maximal at 440 nM (IC50).
Turning to `COc1cc(NC(=O)C(=O)N(C)c2ccccc2)ccc1-c1cnco1`, the IC50 is above 10000 nM.
For the compound `COc1cc(NC(=O)C(=O)NC(C)C)ccc1-c1cnco1`, the IC50 is above 10000 nM.
In turn, `COc1cc(NC(=O)C(=O)NC(C)(C)CO)ccc1-c1cnco1` yielded an IC50 of 19 nM.
The figure for `CC(C)(C)NC(=O)C(=O)Nc1ccc(-c2cnco2)cc1` is above 10000 nM.
As for `Cc1ncoc1-c1ccc(NC(=O)C(=O)NC(C)(C)C)cc1`, the IC50 was above 10000 nM.
In the case of `COc1cc(NC(=O)C(=O)NCc2ccccc2)ccc1-c1cnco1` it was above 10000 nM; in that of `COc1cc(NC(=O)C(=O)NC2CCCCC2)ccc1-c1cnco1`, above 10000 nM.
The figure for `COc1cc(NC(=O)C(=O)NNc2ccccc2)ccc1-c1cnco1` is above 10000 nM.
Consider `CCCNC(=O)C(=O)Nc1ccc(-c2cnco2)c(OC)c1`, for which the half-inhibitory concentration (IC50) is above 10000 nM.
Compound `COc1cc(NC(=O)C(=O)Nc2ccccc2)ccc1-c1cnco1` gave a concentration for half-maximal inhibition (IC50) of 52 nM.
In the case of `COc1cc(NC(=O)C(=O)NC(C)(C)C(=O)O)ccc1-c1cnco1`, the half-inhibitory concentration (IC50) is above 10000 nM.
For the compound `COc1cc(NC(=O)C(=O)NC2(CO)CCCC2)ccc1-c1cnco1`, half-maximal inhibition (IC50) was put at 18 nM.
